This note sets out measurements from ChEMBL document CHEMBL3046715, “In vivo evaluation of substituted 3-phenyl,7-methoxy-benzopyrans as modified estrogens” (2010).

Common to all, as to assay type: functional
In experiment [1] the test system is Rattus norvegicus. Nature of the experiment: Estrogen agonistic activity in immature Rattus norvegicus Sprague-Dawley (rat) assessed as gain in uterine weight at 10 mg/kg, po qd for 3 days.
For experiment [2], the system named is Rattus norvegicus. Nature of the experiment: Estrogen antagonistic activity in immature Rattus norvegicus Sprague-Dawley (rat) assessed as inhibition of ethynylestradiol-induced increase in uterine weight at 10 mg/kg, po qd for 3 days. The following applies: 72 h.
Experiment [3] has as its system Rattus norvegicus. Put plainly: Estrogen agonistic activity in immature Rattus norvegicus Sprague-Dawley (rat) assessed as uterine weight at 0.02 mg/kg, po qd for 3 days (reference value: 14 +/- 1.3 to 22.23 +/- 1.2 mg).

One may read the inhibition in vivo as the relative decrease from the control value, in per cent.

Consider `COc1ccc2c(c1)OC(C)(C)C(c1ccccc1)C2c1ccc(OCCN2CCCC2)cc1` (configuration not stated) [ORMELOXIFENE], for which the Activity in the experiment on Rattus norvegicus [1] worked out at 156%. The inhibition in vivo at 10 mg/kg with Rattus norvegicus [2] is 67%.
The corresponding values for `O=C(c1ccc(OCCN2CCCCC2)cc1)c1c(-c2ccc(O)cc2)sc2cc(O)ccc12` [RALOXIFENE] are 90% and 57%.
The corresponding values for `C=C1CC[C@H](O)C/C1=C/C=C1\CCC[C@]2(C)[C@@H]([C@H](C)CCCC(C)C)CC[C@@H]12` [CHOLECALCIFEROL] are 82% and 39%.
Regarding `CCC(O)(CC)CCCOc1ccc2c(c1)OCC(c1ccc(OC)cc1)C2` (configuration not stated), the Activity with Rattus norvegicus [1] came out at 48%. In addition, in the experiment on Rattus norvegicus [2], the inhibition in vivo at 10 mg/kg amounted to 3%.
On to `C#C[C@]1(O)CC[C@H]2[C@@H]3CCc4cc(O)ccc4[C@H]3CC[C@@]21C` [ETHINYL ESTRADIOL], for which the Activity is 480% with Rattus norvegicus [1] and 85 mg with Rattus norvegicus [3].
`COc1ccc(C2COc3cc(OCCCC(C)(C)O)ccc3C2)cc1` (configuration not stated): the Activity with Rattus norvegicus [1] was 31%. Further, in the experiment on Rattus norvegicus [2], the inhibition in vivo at 10 mg/kg is 6%.
